The test system of series [1] is Human immunodeficiency virus 1. The series is described as follows: Antiviral activity against HIV-1 IIIB (B, X4) assessed as inhibition of viral replication measured after 4 days by ELISA. The format is functional, organism-based. The settings on record: Human immunodeficiency virus 1, IIIB (B, X4), 96 h. (An ELISA detects its analyte on a solid surface through an enzyme-linked reagent.)

A short description of series [2]: Alpha-helicity of compound in PBS buffer at pH 7.4 at 10 uM incubated for 30 mins by CD spectroscopy relative to control. The format is physicochemical. As to conditions: pH 7.4, 0.5 h.
Series [3] deals with Human immunodeficiency virus 1. Briefly: Binding affinity to HIV1 gp41 NHR target surrogate N36 assessed as alpha-helicity at 10 uM incubated for 30 mins by CD spectroscopy (reference value: 26 %).
Series [4] has as its system Human immunodeficiency virus 1. The series is described as follows: Binding affinity to HIV1 gp41 NHR target surrogate T21 assessed as alpha-helicity at 10 uM incubated for 30 mins by CD spectroscopy (reference value: 66 %).
Series [5] relates to Human immunodeficiency virus 1. The series is described as follows: Binding affinity to HIV1 gp41 NHR target surrogate N36 assessed as melting temperature at 10 uM incubated for 30 mins by CD spectroscopy.
Series [6] relates to Human immunodeficiency virus 1. The series is described as follows: Binding affinity to HIV1 gp41 NHR target surrogate T21 assessed as melting temperature at 10 uM incubated for 30 mins by CD spectroscopy.
In series [7] the test system is Human immunodeficiency virus 1. Briefly: Binding affinity to HIV1 gp41 NHR target surrogate T21 at 50 uM incubated for 30 mins by N-PAGE analysis.
Series [8] deals with Human immunodeficiency virus 1. Briefly: Binding affinity to HIV1 gp41 NHR target surrogate T21 assessed as binding constant, K by isothermal titration calorimetry.
Series [9] concerns Human immunodeficiency virus 1. Briefly: Antiviral activity against HIV-1 IIIB assessed as inhibition of viral replication measured after 4 days by ELISA. As to conditions: Human immunodeficiency virus 1, IIIB, 96 h. The format is functional, organism-based.
Series [10] can be described thus: Cytotoxicity against human CEMx174 5.25M7 cells upto 10 uM incubated for 48 hrs by CCK-8 assay. It is filed as toxicity, cell-based. The settings on record: cemx174 5.25m7, 48 h. (In general: Tetrazolium dyes change colour on reduction, which living cells bring about.)
In series [11] the test system is MT2. Briefly: Cytotoxicity against human MT2 cells upto 10 uM incubated for 48 hrs by CCK-8 assay. The format is toxicity, cell-based. The settings on record: mt2, 48 h.
Series [12] relates to Human immunodeficiency virus 1. Briefly: Antiviral activity against T20-sensitive HIV-1 D36G assessed as inhibition of viral replication measured after 4 days by ELISA. It is filed as functional, organism-based.
The subject of series [13] is Human immunodeficiency virus 1. The series is described as follows: Antiviral activity against T20-resistant HIV-1 V38E/N42S assessed as inhibition of viral replication measured after 4 days by ELISA. It is filed as functional, organism-based.
Series [14] has as its system Human immunodeficiency virus 1. Briefly: Antiviral activity against T20-resistant HIV-1 V38A/N42T assessed as inhibition of viral replication measured after 4 days by ELISA. The format is functional, organism-based.
Series [15] deals with Human immunodeficiency virus 1. Briefly: Binding affinity to HIV1 gp41 NHR target surrogate T21 assessed as sedimentation coefficient incubated for 30 mins measured for 0.16 to 7 hrs by Sedimentation velocity analysis. The settings on record: time 0.56-7.5 hrs.
Series [16] concerns Human immunodeficiency virus 1. Briefly: Inhibition of HIV-1 replication assessed as inhibition of gp41 six-helix bundle formation between T21 and CP32 incubated for 30 mins followed by CP32 addition measured after 30 mins by N-PAGE analysis. The format is functional. The settings on record: dose <= 120.0 µM, time 1.0 hrs, DDE = dose-dependent effect.
A short description of series [17]: Selectivity ratio of EC50 for antiviral activity against T20-resistant HIV-1 V38E/N42S to EC50 for antiviral activity against T20-sensitive HIV-1 D36G. The format is functional.
The nature of series [18]: Selectivity ratio of EC50 for antiviral activity against T20-resistant HIV-1 V38A/N42T to EC50 for antiviral activity against T20-sensitive HIV-1 D36G. The format is functional.

Active and inactive are the calls of the source. No cut-off for these calls is given here. Where a SMILES comes first, the peptide text is derived from it. [ ]: non-standard residue; d: D form. The star is where a group is joined. O(cholesteryl) = CC(C)CCC[C@@H](C)[C@H]1CC[C@H]2[C@@H]3CC=C4C[C@@H](O*)CC[C@]4(C)[C@H]3CC[C@]12C; PEG24 = NCCOCCOCCOCCOCCOCCOCCOCCOCCOCCOCCOCCOCCOCCOCCOCCOCCOCCOCCOCCOCCOCCOCCOCCOCCC(=O)O; PEG8 = NCCOCCOCCOCCOCCOCCOCCOCCOCCC(=O)O; PEG4 = NCCOCCOCCOCCOCCC(=O)O Where only a bound is given, the exact number is not on record here.

In the case of “Ac-QEESIKKWEEWSKKIEELIKKSEELIKKIEEQIKK-NH2”, the EC50 in [1] was found to be 64.5 nM. The Activity came to 63% in [2], 92% in series [3] and 100% in [4]. Also, the Tm came to 52 °C in [5] and 74 °C in series [6]. Moreover, in series [7], the result was Active. For the same compound, the K in [8] is 1.59 10^5/M.
On to `CC[C@H](C)[C@H](NC(=O)[C@H](CCC(N)=O)NC(=O)[C@H](CCC(=O)O)NC(=O)[C@H](CCC(=O)O)NC(=O)[C@@H](NC(=O)[C@H](CCCCN)NC(=O)[C@H](CCCCN)NC(=O)[C@@H](NC(=O)[C@H](CC(C)C)NC(=O)[C@H](CCC(=O)O)NC(=O)[C@H](CCC(=O)O)NC(=O)[C@H](CO)NC(=O)[C@H](CCCCN)NC(=O)[C@H](CCCCN)NC(=O)[C@@H](NC(=O)[C@H](CC(C)C)NC(=O)[C@H](CCC(=O)O)NC(=O)[C@H](CCC(=O)O)NC(=O)[C@@H](NC(=O)[C@H](CCCCN)NC(=O)[C@H](CCCCN)NC(=O)[C@H](CO)NC(=O)[C@H](Cc1c[nH]c2ccccc12)NC(=O)[C@H](CCC(=O)O)NC(=O)[C@H](CCC(=O)O)NC(=O)[C@H](Cc1c[nH]c2ccccc12)NC(=O)[C@H](CCCCN)NC(=O)[C@H](CCCCN)NC(=O)[C@@H](NC(=O)[C@H](CO)NC(=O)[C@H](CCC(=O)O)NC(=O)[C@H](CCC(=O)O)NC(=O)[C@H](CCC(N)=O)NC(C)=O)[C@@H](C)CC)[C@@H](C)CC)[C@@H](C)CC)[C@@H](C)CC)[C@@H](C)CC)C(=O)N[C@@H](CCCCN)C(=O)N[C@@H](CCCCN)C(=O)NCCOCCOCCOCCOCCOCCOCCOCCOCCOCCOCCOCCOCCOCCOCCOCCOCCOCCOCCOCCOCCOCCOCCOCCOCCC(=O)N[C@@H](CS)C(=O)O[C@H]1CC[C@@]2(C)C(=CC[C@H]3[C@@H]4CC[C@H]([C@H](C)CCCC(C)C)[C@@]4(C)CC[C@@H]32)C1` (Ac-QEESIKKWEEWSKKIEELIKKSEELIKKIEEQIKK[PEG24]C-{O(cholesteryl)}), for which the Activity was 56% in series [2]; 81% in series [3]; 94% in [4]; “Non-Toxic” in series [10]; “Non-Toxic” in [11]. Besides, the results for the Tm in series [5] and in series [6] were 50 °C and 68 °C, respectively. Besides, the EC50 in series [9] came to 5.21 nM; in series [12] it was 1.62 nM; in [13], 5.07 nM; in [14], 2.38 nM. Besides, the S20,w in series [15] is 2.43 S. The inhibition result in series [16] is “Dde”. For the same compound, the “Ratio EC50” value in series [17] was 3.1; in [18], 1.5.
With `CC[C@H](C)[C@H](NC(=O)[C@H](CCC(N)=O)NC(=O)[C@H](CCC(=O)O)NC(=O)[C@H](CCC(=O)O)NC(=O)[C@@H](NC(=O)[C@H](CCCCN)NC(=O)[C@H](CCCCN)NC(=O)[C@@H](NC(=O)[C@H](CC(C)C)NC(=O)[C@H](CCC(=O)O)NC(=O)[C@H](CCC(=O)O)NC(=O)[C@H](CO)NC(=O)[C@H](CCCCN)NC(=O)[C@H](CCCCN)NC(=O)[C@@H](NC(=O)[C@H](CC(C)C)NC(=O)[C@H](CCC(=O)O)NC(=O)[C@H](CCC(=O)O)NC(=O)[C@@H](NC(=O)[C@H](CCCCN)NC(=O)[C@H](CCCCN)NC(=O)[C@H](CO)NC(=O)[C@H](Cc1c[nH]c2ccccc12)NC(=O)[C@H](CCC(=O)O)NC(=O)[C@H](CCC(=O)O)NC(=O)[C@H](Cc1c[nH]c2ccccc12)NC(=O)[C@H](CCCCN)NC(=O)[C@H](CCCCN)NC(=O)[C@@H](NC(=O)[C@H](CO)NC(=O)[C@H](CCC(=O)O)NC(=O)[C@H](CCC(=O)O)NC(=O)[C@H](CCC(N)=O)NC(C)=O)[C@@H](C)CC)[C@@H](C)CC)[C@@H](C)CC)[C@@H](C)CC)[C@@H](C)CC)C(=O)N[C@@H](CCCCN)C(=O)N[C@@H](CCCCN)C(=O)NCCOCCOCCOCCOCCC(=O)N[C@@H](CS)C(=O)O[C@H]1CC[C@@]2(C)C(=CC[C@H]3[C@@H]4CC[C@H]([C@H](C)CCCC(C)C)[C@@]4(C)CC[C@@H]32)C1` (Ac-QEESIKKWEEWSKKIEELIKKSEELIKKIEEQIKK[PEG4]C-{O(cholesteryl)}), in series [9], the EC50 worked out at 44.4 nM.
Still for that read-out and setting: under `CC[C@H](C)[C@H](NC(=O)[C@H](CCC(N)=O)NC(=O)[C@H](CCC(=O)O)NC(=O)[C@H](CCC(=O)O)NC(=O)[C@@H](NC(=O)[C@H](CCCCN)NC(=O)[C@H](CCCCN)NC(=O)[C@@H](NC(=O)[C@H](CC(C)C)NC(=O)[C@H](CCC(=O)O)NC(=O)[C@H](CCC(=O)O)NC(=O)[C@H](CO)NC(=O)[C@H](CCCCN)NC(=O)[C@H](CCCCN)NC(=O)[C@@H](NC(=O)[C@H](CC(C)C)NC(=O)[C@H](CCC(=O)O)NC(=O)[C@H](CCC(=O)O)NC(=O)[C@@H](NC(=O)[C@H](CCCCN)NC(=O)[C@H](CCCCN)NC(=O)[C@H](CO)NC(=O)[C@H](Cc1c[nH]c2ccccc12)NC(=O)[C@H](CCC(=O)O)NC(=O)[C@H](CCC(=O)O)NC(=O)[C@H](Cc1c[nH]c2ccccc12)NC(=O)[C@H](CCCCN)NC(=O)[C@H](CCCCN)NC(=O)[C@@H](NC(=O)[C@H](CO)NC(=O)[C@H](CCC(=O)O)NC(=O)[C@H](CCC(=O)O)NC(=O)[C@H](CCC(N)=O)NC(C)=O)[C@@H](C)CC)[C@@H](C)CC)[C@@H](C)CC)[C@@H](C)CC)[C@@H](C)CC)C(=O)N[C@@H](CCCCN)C(=O)N[C@@H](CCCCN)C(=O)NCCOCCOCCOCCOCCOCCOCCOCCOCCC(=O)N[C@@H](CS)C(=O)O[C@H]1CC[C@@]2(C)C(=CC[C@H]3[C@@H]4CC[C@H]([C@H](C)CCCC(C)C)[C@@]4(C)CC[C@@H]32)C1` (Ac-QEESIKKWEEWSKKIEELIKKSEELIKKIEEQIKK[PEG8]C-{O(cholesteryl)}) stands 21.2 nM.
Consider enfuvirtide, for which the 50% effective concentration (EC50) is 8.26 nM in series [9], 41.1 nM in series [12], above 1000 nM in [13] and 696 nM in [14]. Also, the “Ratio EC50” value in series [17] is listed as above 24; in series [18], 17.

As a reminder, the EC50 is the concentration needed to bring the measured effect to its halfway point.

The values are drawn from ChEMBL document CHEMBL5131511, “Design of artificial α-helical peptides targeting both gp41 deep pocket and subpocket as potent HIV-1 fusion inhibitors” (Eur J Med Chem, 2022).
